Experimental data taken from ChEMBL document CHEMBL1909046, “DrugMatrix in vitro pharmacology data”.

Key:
[1] = DRUGMATRIX: Platelet-Derived Growth Factor (PDGF) radioligand binding (ligand: [125I] PDGF); type: cell-based; conditions: nih3t3; Not Active = under 50% inhibition at 10 µM
[2] = biological target: Nitric oxide synthase 1 (Rattus norvegicus, UniProt P29476); type: tissue-based, Cerebellum; further: in other assays of this panel Not Active means under 50% inhibition at 10 µM
[3] = DRUGMATRIX: beta-Lactamase enzyme inhibition (substrate: Nitrocefin); set-up: species or system Bacillus cereus; conditions: Not Active = under 50% inhibition at 10 µM
[4] = biological target: T1, Cathepsin G (Homo sapiens, UniProt P08311); assay: biochemical; type: tissue-based, Neutrophil; conditions: neutrophil;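 further: inhibition of Cathepsin G enzyme activity, tested on an AMC-conjugated peptide substrate; in other assays of this panel Not Active means under 50% inhibition at 10 µM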
T1 sequence (P08311 whole entry): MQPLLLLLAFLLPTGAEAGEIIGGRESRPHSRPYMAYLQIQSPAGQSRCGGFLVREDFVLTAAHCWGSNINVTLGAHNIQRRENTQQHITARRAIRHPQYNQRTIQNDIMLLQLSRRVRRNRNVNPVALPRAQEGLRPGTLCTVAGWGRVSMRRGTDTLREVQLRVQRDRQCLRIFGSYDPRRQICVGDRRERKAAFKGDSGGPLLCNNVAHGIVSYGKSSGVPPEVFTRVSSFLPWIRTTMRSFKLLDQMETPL

[5] = biological target: T2, Muscarinic acetylcholine receptor M4 (Homo sapiens, UniProt P08173); type: cell membranes, CHO-K1, Membrane; conditions: cho-k1; further: in other assays of this panel Not Active means under 50% inhibition at 10 µM
T2 sequence (P08173 whole entry): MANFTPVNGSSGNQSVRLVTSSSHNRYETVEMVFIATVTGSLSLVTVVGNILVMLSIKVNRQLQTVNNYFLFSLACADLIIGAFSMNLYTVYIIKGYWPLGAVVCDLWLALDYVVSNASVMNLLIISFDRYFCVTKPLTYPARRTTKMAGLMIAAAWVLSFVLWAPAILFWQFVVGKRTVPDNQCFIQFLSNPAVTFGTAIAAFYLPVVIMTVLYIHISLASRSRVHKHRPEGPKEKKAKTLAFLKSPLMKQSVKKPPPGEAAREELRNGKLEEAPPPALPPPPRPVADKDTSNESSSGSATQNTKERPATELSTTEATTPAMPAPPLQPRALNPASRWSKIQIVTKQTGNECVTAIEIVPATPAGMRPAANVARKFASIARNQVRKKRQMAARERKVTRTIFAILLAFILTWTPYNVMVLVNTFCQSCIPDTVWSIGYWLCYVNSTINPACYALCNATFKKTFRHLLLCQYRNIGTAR

[6] = DRUGMATRIX: Phosphodiesterase PDE3 enzyme inhibition (substrate: [3H]cAMP + cAMP); type: tissue-based, Homo sapiens; conditions: platelet, Not Active = under 50% inhibition at 10 µM
[7] = DRUGMATRIX: Potassium Channel [KATP] radioligand binding (ligand: [3H] Glyburide); type: cell membranes, Membrane; conditions: hit-t15; Not Active = under 50% inhibition at 10 µM

Nitric oxide synthase 1, sequence (P29476 whole entry): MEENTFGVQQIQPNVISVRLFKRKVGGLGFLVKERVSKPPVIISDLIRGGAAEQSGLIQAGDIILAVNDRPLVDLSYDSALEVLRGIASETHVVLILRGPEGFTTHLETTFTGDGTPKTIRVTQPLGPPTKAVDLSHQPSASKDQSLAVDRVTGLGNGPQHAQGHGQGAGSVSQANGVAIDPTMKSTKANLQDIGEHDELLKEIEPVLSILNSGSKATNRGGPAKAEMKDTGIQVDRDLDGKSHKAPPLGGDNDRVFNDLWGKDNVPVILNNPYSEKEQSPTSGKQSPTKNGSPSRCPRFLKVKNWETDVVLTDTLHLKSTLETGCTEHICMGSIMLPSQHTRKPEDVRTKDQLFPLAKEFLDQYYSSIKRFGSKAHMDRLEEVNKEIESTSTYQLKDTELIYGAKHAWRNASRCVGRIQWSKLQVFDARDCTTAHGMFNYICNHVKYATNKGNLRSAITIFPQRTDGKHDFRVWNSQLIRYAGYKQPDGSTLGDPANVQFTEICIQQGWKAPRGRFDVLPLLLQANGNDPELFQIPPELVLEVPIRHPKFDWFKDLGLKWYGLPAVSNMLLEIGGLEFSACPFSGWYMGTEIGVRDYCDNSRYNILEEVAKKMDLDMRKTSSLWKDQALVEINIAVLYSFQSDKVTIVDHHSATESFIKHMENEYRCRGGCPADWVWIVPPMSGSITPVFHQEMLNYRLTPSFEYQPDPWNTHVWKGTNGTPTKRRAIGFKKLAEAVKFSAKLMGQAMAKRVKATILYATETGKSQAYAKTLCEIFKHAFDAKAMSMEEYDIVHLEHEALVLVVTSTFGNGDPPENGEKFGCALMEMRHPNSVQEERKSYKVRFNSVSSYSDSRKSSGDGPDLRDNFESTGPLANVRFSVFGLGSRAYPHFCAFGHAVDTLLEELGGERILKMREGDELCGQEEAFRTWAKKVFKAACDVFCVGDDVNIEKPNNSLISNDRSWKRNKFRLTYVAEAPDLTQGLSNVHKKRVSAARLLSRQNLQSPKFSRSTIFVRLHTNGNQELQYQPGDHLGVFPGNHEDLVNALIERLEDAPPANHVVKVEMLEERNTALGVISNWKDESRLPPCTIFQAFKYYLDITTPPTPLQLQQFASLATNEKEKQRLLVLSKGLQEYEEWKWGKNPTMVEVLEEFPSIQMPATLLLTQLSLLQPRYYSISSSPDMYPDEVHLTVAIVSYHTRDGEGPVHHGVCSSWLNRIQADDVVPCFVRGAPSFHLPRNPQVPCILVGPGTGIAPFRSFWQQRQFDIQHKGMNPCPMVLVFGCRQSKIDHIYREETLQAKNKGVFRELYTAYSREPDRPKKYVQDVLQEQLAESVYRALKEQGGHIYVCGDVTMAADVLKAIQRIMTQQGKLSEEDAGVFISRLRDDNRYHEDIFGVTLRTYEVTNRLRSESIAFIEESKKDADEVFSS

Row | Compound | IC50 [1] | Ki [1] | IC50 [2] | IC50 [3] | Ki [3] | IC50 [4] | IC50 [5] | IC50 [6] | Ki [6] | IC50 [7] | Ki [7] | IC50 ([6]; read-out: IC50) | Ki [2] | Ki [4] | Ki [5]
1 | C[C@]12CCC(=O)C[C@@H]1CC[C@@H]1[C@@H]2CC[C@]2(C)[C@@H](O)CC[C@@H]12 [STANOLONE] | Not Active | Not Active | Not Active | Not Active | Not Active | Not Active | Not Active | Not Active | Not Active | Not Active | Not Active |  |  |  | 
2 | CCN(CC)CCNC(=O)c1cc(Cl)c(N)cc1OC [METOCLOPRAMIDE] | Not Active | Not Active | Not Active | Not Active | Not Active | Not Active | Not Active | Not Active | Not Active | Not Active | Not Active |  |  |  | 
3 | COC(=O)Nc1nc2ccc(C(=O)c3ccccc3)cc2[nH]1 [MEBENDAZOLE] | Not Active | Not Active | Not Active | Not Active | Not Active | Not Active | Not Active | Not Active | Not Active | Not Active | Not Active |  |  |  | 
4 | O=[As][O-].[Na+] [SODIUM ARSENITE] | Not Active | Not Active | Not Active | Not Active | Not Active | Not Active | Not Active | Not Active | Not Active | Not Active | Not Active |  |  |  | 
5 | CS(=O)(=O)c1ccc(C2=C(c3ccccc3)C(=O)OC2)cc1 [ROFECOXIB] | Not Active | Not Active | Not Active | Not Active | Not Active | Not Active | Not Active | Not Active | Not Active | Not Active | Not Active |  |  |  | 
6 | CC1(C)[C@H](C(=O)O)N2C(=O)C[C@H]2S1(=O)=O [SULBACTAM] | Not Active | Not Active | Not Active | Not Active | Not Active | Not Active | Not Active | Not Active | Not Active | Not Active | Not Active |  |  |  | 
7 | CC(N)C12CC3CC(CC(C3)C1)C2 (stereo not drawn) [RIMANTADINE] | Not Active | Not Active | Not Active | Not Active | Not Active | Not Active | Not Active | Not Active | Not Active | Not Active | Not Active |  |  |  | 
8 | CC[C@H](C)C(=O)O[C@H]1CCC=C2C=C[C@H](C)[C@H](CC[C@@H]3C[C@@H](O)CC(=O)O3)[C@H]21 [MEVASTATIN] | Not Active | Not Active | Not Active | Not Active | Not Active | Not Active | Not Active | Not Active | Not Active | Not Active | Not Active |  |  |  | 
9 | O=C(OC[C@H]1O[C@@H](OC(=O)c2cc(O)c(O)c(OC(=O)c3cc(O)c(O)c(O)c3)c2)[C@H](OC(=O)c2cc(O)c(O)c(OC(=O)c3cc(O)c(O)c(O)c3)c2)[C@@H](OC(=O)c2cc(O)c(O)c(OC(=O)c3cc(O)c(O)c(O)c3)c2)[C@@H]1OC(=O)c1cc(O)c(O)c(OC(=O)c2cc(O)c(O)c(O)c2)c1)c1cc(O)c(O)c(OC(=O)c2cc(O)c(O)c(O)c2)c1 [TANNIC ACID] | Not Active | Not Active | Not Active | Not Active | Not Active | Not Active | Not Active |  |  | Not Active | Not Active | 714 nM |  |  | 
10 | LEAD(IV) ACETATE | Not Active | Not Active | Not Active | Not Active | Not Active | Not Active | Not Active | Not Active | Not Active | Not Active | Not Active |  | Not Active | Not Active | Not Active
11 | CO[C@@H]1[C@@H](OC)[C@H](C)[C@@](O)(CC(=O)O)O[C@H]1[C@H](C)[C@H]1O[C@@]2(CC[C@@](C)([C@H]3CC[C@@](C)([C@@H]4O[C@@H]([C@H]5O[C@](C)(O)[C@H](C)C[C@@H]5C)C[C@@H]4O[C@@H]4C[C@H](OC)[C@@H](OC)[C@H](C)O4)O3)O2)C[C@H](O)[C@H]1C.N [MADURAMICIN] | Not Active | Not Active | Not Active | Not Active | Not Active | Not Active | Not Active | Not Active | Not Active | Not Active | Not Active |  |  |  | 
